The values that follow are results of earlier work, collected in patent US10875836B2, “Callyspongiolide, analogs thereof and uses thereof” (Purdue Research Foundation, priority 2016, dated 2020).

One may read the IC50 as the concentration needed to halve the response being measured.

The subject of data set [1] is human Jurkat J16 T lymphocytes.
The test system of data set [2] is human Ramos B lymphocytes.
The test system of data set [3] is A549 cell line.
For data set [4], the system named is K562 cell line.

As to `C[C@@H]1C/C=C\C(=O)O[C@H](/C=C/C#C/C=C/C(C)(C)[C@@H](O)c2cccc(O)c2Br)[C@@H](C)/C=C/[C@H](C)C[C@H](OC(N)=O)C1` [callyspongiolide], the IC50 in data set [1] was 70 nM; in data set [2], 60 nM.
Take callyazepin: the cytotoxicity result in data set [3] and in data set [4] was “moderate cytotoxicity” throughout.
